# Measurements from the kinase profiling compilation of Christmann-Franck et al. (2016).
# Assays:
# Test in all cases: radiometric filter-binding kinase assay, Kinase HotSpot
# Details in all cases: compound 0.5 µM; ATP 10 µM
# CLK1 (human) = CLK1 (human) (UniProt P49759)
# EPHA4 (human) = EPHA4 (human) (UniProt P54764)
# TYRO3 (human) = TYRO3 (human) (UniProt Q06418)
# NEK2 (human) = NEK2 (human) (UniProt P51955)
# PRKCI (human) = PRKCI (human) (UniProt P41743)
# MAPK11 (human) = MAPK11 (human) (UniProt Q15759)
# FYN (human) = FYN (human) (UniProt P06241)
# CDK5 CDK5R1 p25 (human) = CDK5 CDK5R1 p25 (human) (UniProt Q00535+Q15078)
# MELK (human) = MELK (human) (UniProt Q14680)
# RPS6KB2 (human) = RPS6KB2 (human) (UniProt Q9UBS0)
# PNCK (human) = PNCK (human) (UniProt Q6P2M8)
# EPHA1 (human) = EPHA1 (human) (UniProt P21709)
# NEK7 (human) = NEK7 (human) (UniProt Q8TDX7)
# ROCK2 (human) = ROCK2 (human) (UniProt O75116)
# [1] = tested on: MAP2K6 (human), P52564 [S207E/T211E]
# LRRK2 (human) = LRRK2 (human) (UniProt Q5S007)
# CDK2 CCNE1 (human) = CDK2 CCNE1 (human) (UniProt P24941+P24864)
# BRSK2 (human) = BRSK2 (human) (UniProt Q8IWQ3)
# PTK2 (human) = PTK2 (human) (UniProt Q05397)
# GRK7 (human) = GRK7 (human) (UniProt Q8WTQ7)
# PIM1 (human) = PIM1 (human) (UniProt P11309)
# MAPK9 (human) = MAPK9 (human) (UniProt P45984)
# PTK2B (human) = PTK2B (human) (UniProt Q14289)
# CDK6 CCND1 (human) = CDK6 CCND1 (human) (UniProt Q00534+P24385)
# CHEK2 (human) = CHEK2 (human) (UniProt O96017)
# ROS1 (human) = ROS1 (human) (UniProt P08922)
# CSNK1G1 (human) = CSNK1G1 (human) (UniProt Q9HCP0)
# PDPK1 (human) = PDPK1 (human) (UniProt O15530)
# CDK1 CCNA2 (human) = CDK1 CCNA2 (human) (UniProt P06493+P20248)
# STK39 (human) = STK39 (human) (UniProt Q9UEW8)
# [2] = tested on: FLT4 (human), P35916 [Q890H]
# WNK2 (human) = WNK2 (human) (UniProt Q9Y3S1)
# MARK3 (human) = MARK3 (human) (UniProt P27448)
# TBK1 (human) = TBK1 (human) (UniProt Q9UHD2)
# RAF1 (human) = RAF1 (human) (UniProt P04049)
# ADRBK1 (human) = ADRBK1 (human) (UniProt P25098)
# LTK (human) = LTK (human) (UniProt P29376)
# ADRBK2 (human) = ADRBK2 (human) (UniProt P35626)
# TEC (human) = TEC (human) (UniProt P42680)
# MARK4 (human) = MARK4 (human) (UniProt Q96L34)
# MINK1 (human) = MINK1 (human) (UniProt Q8N4C8)
# MAP3K5 (human) = MAP3K5 (human) (UniProt Q99683)
# Chain of CHEK2 (human) (O96017 whole entry, looked up): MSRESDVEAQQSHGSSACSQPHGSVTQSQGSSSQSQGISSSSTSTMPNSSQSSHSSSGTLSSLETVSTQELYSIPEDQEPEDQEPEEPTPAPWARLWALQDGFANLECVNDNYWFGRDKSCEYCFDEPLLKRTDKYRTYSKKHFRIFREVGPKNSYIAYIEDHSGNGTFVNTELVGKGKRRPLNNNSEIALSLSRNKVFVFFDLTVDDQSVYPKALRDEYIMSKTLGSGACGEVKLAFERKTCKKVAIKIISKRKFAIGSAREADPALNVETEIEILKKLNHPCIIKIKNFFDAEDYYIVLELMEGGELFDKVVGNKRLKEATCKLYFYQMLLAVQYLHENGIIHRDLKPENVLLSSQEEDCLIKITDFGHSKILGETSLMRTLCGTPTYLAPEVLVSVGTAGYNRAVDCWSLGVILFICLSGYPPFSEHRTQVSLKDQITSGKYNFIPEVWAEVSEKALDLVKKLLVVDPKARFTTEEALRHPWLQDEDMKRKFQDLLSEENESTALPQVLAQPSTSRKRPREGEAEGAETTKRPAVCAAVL
# Chain of CDK2 CCNE1 (human) (P24864 whole entry, looked up, other chains not shown): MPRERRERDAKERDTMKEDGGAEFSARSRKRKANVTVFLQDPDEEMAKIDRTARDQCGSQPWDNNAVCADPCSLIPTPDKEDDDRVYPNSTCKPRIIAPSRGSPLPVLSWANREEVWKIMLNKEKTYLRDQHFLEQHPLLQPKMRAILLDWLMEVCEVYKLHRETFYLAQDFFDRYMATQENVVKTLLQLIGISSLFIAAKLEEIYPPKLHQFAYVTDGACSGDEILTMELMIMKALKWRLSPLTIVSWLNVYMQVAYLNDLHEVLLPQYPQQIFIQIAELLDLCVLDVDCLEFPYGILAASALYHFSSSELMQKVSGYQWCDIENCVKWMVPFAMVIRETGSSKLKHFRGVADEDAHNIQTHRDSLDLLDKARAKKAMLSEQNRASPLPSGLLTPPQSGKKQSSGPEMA
# Chain of TBK1 (human) (Q9UHD2 whole entry, looked up): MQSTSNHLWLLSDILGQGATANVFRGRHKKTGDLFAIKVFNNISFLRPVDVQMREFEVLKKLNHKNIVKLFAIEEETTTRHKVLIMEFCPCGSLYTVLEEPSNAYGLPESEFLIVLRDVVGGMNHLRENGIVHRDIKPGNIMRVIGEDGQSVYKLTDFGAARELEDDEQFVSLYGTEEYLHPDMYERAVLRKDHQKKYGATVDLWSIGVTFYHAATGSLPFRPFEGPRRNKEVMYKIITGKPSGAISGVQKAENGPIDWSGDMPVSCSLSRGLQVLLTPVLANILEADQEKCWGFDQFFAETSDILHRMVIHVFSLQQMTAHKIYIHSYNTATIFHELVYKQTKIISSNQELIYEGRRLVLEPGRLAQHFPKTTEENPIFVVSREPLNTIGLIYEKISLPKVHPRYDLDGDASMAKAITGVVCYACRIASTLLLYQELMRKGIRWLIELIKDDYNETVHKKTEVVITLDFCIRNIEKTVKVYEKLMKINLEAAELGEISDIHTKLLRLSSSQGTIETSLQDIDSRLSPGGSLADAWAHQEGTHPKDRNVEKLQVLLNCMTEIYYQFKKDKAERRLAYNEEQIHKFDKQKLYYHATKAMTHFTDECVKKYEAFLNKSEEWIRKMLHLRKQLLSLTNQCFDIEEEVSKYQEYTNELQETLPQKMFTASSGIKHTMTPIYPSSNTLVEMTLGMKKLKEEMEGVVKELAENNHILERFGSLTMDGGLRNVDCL
# Chain of MAPK9 (human) (P45984 whole entry, looked up): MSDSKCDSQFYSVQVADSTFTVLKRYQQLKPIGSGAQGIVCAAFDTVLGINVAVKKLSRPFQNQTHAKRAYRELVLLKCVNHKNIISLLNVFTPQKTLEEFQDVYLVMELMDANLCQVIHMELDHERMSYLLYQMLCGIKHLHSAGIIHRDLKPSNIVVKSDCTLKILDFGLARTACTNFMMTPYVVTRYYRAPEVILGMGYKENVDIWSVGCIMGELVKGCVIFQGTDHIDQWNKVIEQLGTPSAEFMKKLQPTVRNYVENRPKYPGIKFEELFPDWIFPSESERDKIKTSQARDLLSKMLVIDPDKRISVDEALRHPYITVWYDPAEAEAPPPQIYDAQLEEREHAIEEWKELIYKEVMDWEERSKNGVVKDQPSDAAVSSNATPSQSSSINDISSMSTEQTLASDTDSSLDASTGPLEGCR
# Chain of CDK6 CCND1 (human) (P24385 whole entry, looked up): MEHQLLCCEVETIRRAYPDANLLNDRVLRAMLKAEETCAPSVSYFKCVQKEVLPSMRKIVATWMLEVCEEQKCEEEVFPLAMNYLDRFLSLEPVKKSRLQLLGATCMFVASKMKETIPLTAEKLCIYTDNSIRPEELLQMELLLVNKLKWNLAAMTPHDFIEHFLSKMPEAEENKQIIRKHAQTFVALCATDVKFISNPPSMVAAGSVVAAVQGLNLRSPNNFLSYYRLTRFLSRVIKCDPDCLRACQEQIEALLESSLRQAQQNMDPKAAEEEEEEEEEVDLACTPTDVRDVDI
# Chain of CDK6 CCND1 (human) (Q00534 whole entry, looked up): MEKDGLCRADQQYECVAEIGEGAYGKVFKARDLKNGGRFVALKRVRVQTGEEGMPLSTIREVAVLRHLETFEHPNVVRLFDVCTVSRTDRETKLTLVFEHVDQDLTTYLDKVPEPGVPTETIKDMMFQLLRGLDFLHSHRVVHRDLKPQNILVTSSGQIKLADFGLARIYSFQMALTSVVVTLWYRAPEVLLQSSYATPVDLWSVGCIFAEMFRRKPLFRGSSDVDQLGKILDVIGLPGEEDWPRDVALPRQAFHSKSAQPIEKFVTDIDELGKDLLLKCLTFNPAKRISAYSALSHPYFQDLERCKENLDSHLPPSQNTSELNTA
# Chain of PTK2B (human) (Q14289 whole entry, looked up): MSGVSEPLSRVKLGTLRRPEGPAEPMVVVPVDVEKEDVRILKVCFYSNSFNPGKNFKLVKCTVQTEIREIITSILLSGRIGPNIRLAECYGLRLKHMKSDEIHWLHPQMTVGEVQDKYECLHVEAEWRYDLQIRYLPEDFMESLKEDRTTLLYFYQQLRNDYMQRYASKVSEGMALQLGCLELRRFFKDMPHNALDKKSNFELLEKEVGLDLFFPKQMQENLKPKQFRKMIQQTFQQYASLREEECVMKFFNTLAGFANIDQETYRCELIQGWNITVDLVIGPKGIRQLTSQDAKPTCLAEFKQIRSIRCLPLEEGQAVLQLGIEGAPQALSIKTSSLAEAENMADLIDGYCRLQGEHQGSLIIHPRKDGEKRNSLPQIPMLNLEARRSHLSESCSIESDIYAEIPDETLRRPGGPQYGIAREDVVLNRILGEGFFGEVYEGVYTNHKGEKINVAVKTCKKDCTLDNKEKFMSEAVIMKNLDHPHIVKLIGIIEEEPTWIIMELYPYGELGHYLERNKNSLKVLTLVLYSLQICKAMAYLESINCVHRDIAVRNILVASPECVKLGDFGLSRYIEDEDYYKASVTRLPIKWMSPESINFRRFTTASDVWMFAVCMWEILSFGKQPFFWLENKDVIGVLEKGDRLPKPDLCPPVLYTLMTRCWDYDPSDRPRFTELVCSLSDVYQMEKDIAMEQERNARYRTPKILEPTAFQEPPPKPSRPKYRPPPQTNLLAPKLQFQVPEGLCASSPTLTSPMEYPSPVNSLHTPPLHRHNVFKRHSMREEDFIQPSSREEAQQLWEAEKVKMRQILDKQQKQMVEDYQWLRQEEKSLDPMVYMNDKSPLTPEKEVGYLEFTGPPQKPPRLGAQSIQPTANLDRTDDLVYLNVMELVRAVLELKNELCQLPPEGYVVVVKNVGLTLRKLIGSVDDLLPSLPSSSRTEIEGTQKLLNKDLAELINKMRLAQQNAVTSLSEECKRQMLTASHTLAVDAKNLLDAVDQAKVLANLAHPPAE
# Chain of ADRBK1 (human) (P25098 whole entry, looked up): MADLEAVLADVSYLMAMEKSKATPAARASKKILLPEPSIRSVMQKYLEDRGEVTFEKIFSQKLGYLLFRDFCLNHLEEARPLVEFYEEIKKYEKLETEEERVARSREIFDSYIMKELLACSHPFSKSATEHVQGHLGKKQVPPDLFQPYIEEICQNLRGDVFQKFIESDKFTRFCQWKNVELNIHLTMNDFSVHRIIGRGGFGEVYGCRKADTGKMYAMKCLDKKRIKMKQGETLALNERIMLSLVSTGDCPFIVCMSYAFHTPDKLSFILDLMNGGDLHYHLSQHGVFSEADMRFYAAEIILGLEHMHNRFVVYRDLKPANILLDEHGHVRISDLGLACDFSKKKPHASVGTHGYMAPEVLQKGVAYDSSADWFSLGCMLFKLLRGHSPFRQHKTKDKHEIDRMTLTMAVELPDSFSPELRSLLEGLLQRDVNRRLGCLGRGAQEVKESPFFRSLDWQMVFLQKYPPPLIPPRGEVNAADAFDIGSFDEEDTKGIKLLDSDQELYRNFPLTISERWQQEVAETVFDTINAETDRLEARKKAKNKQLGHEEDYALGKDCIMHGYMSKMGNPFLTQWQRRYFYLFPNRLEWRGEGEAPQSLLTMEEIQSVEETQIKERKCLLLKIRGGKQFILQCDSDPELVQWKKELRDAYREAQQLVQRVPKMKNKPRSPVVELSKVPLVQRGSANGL
# Chain of GRK7 (human) (Q8WTQ7 whole entry, looked up): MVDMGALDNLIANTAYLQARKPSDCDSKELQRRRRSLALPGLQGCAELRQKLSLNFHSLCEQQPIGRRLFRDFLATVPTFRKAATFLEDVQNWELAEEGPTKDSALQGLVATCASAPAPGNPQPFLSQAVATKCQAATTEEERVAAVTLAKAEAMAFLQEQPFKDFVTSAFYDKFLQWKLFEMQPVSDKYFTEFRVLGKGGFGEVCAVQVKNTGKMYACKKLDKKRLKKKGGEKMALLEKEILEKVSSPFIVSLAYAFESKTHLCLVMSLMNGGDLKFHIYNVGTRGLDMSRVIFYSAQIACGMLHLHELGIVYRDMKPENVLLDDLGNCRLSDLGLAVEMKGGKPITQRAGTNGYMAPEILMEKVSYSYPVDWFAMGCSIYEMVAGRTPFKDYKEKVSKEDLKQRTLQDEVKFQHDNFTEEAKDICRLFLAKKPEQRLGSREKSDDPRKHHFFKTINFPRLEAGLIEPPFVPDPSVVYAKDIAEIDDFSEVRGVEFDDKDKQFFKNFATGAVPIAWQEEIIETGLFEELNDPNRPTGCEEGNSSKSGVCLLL
structure (smiles),measurement,setting,value
COc1ccc(C(=O)Nc2sc3c(c2C(N)=O)CCCC3)cc1OC,residual activity,CLK1 (human),96.9%
same,residual activity,EPHA4 (human),104%
same,residual activity,TYRO3 (human),98.1%
same,residual activity,NEK2 (human),95.4%
same,residual activity,PRKCI (human),91.8%
same,residual activity,MAPK11 (human),104%
same,residual activity,FYN (human),93.9%
same,residual activity,CDK5 CDK5R1 p25 (human),94.2%
same,residual activity,MELK (human),46%
same,residual activity,RPS6KB2 (human),101%
same,residual activity,PNCK (human),103%
same,residual activity,EPHA1 (human),88.1%
same,residual activity,NEK7 (human),99%
same,residual activity,ROCK2 (human),92.3%
same,residual activity,[1],114%
same,residual activity,LRRK2 (human),87.4%
same,residual activity,CDK2 CCNE1 (human),94.6%
same,residual activity,BRSK2 (human),97.9%
same,residual activity,PTK2 (human),116%
same,residual activity,GRK7 (human),95.5%
same,residual activity,PIM1 (human),98.9%
same,residual activity,MAPK9 (human),118%
same,residual activity,PTK2B (human),95.5%
same,residual activity,CDK6 CCND1 (human),95.1%
same,residual activity,CHEK2 (human),93%
same,residual activity,ROS1 (human),78.8%
same,residual activity,CSNK1G1 (human),90.1%
same,residual activity,PDPK1 (human),87.8%
same,residual activity,CDK1 CCNA2 (human),105%
same,residual activity,STK39 (human),101%
same,residual activity,[2],110%
same,residual activity,WNK2 (human),100%
same,residual activity,MARK3 (human),94.1%
same,residual activity,TBK1 (human),102%
same,residual activity,RAF1 (human),94.8%
same,residual activity,ADRBK1 (human),96.8%
same,residual activity,LTK (human),40.5%
same,residual activity,ADRBK2 (human),103%
same,residual activity,TEC (human),115%
same,residual activity,MARK4 (human),86.5%
same,residual activity,MINK1 (human),85%
same,residual activity,MAP3K5 (human),94.8%
CC(C)(C)c1cc(C=C(C#N)C#N)cc(Br)c1O,residual activity,CLK1 (human),112%
same,residual activity,EPHA4 (human),94.7%
same,residual activity,TYRO3 (human),110%
same,residual activity,NEK2 (human),96%
same,residual activity,PRKCI (human),100%
same,residual activity,MAPK11 (human),100%
same,residual activity,FYN (human),67.2%
same,residual activity,CDK5 CDK5R1 p25 (human),98.2%
same,residual activity,MELK (human),91.6%
same,residual activity,RPS6KB2 (human),102%
same,residual activity,PNCK (human),107%
same,residual activity,EPHA1 (human),85.1%
same,residual activity,NEK7 (human),89.5%
same,residual activity,ROCK2 (human),95.6%
same,residual activity,[1],107%
same,residual activity,LRRK2 (human),109%
same,residual activity,CDK2 CCNE1 (human),77.6%
same,residual activity,BRSK2 (human),94.5%
same,residual activity,PTK2 (human),107%
same,residual activity,GRK7 (human),107%
same,residual activity,PIM1 (human),94.7%
same,residual activity,MAPK9 (human),103%
same,residual activity,PTK2B (human),99.3%
same,residual activity,CDK6 CCND1 (human),99.1%
same,residual activity,CHEK2 (human),104%
same,residual activity,ROS1 (human),93.2%
same,residual activity,CSNK1G1 (human),106%
same,residual activity,PDPK1 (human),102%
same,residual activity,CDK1 CCNA2 (human),87.8%
same,residual activity,STK39 (human),87.6%
same,residual activity,[2],102%
same,residual activity,WNK2 (human),126%
same,residual activity,MARK3 (human),105%
same,residual activity,TBK1 (human),90.2%
same,residual activity,RAF1 (human),104%
same,residual activity,ADRBK1 (human),83.7%
same,residual activity,LTK (human),96.5%
same,residual activity,ADRBK2 (human),98%
same,residual activity,TEC (human),171%
same,residual activity,MARK4 (human),103%
same,residual activity,MINK1 (human),111%
same,residual activity,MAP3K5 (human),100%
Ic1cccc(CSc2nnc(-c3ccncc3)o2)c1,residual activity,CLK1 (human),99.8%
same,residual activity,EPHA4 (human),105%
same,residual activity,TYRO3 (human),103%
same,residual activity,NEK2 (human),100%
same,residual activity,PRKCI (human),96.4%
same,residual activity,MAPK11 (human),96.9%
same,residual activity,FYN (human),102%
same,residual activity,CDK5 CDK5R1 p25 (human),90.5%
same,residual activity,MELK (human),97.7%
same,residual activity,RPS6KB2 (human),103%
same,residual activity,PNCK (human),101%
same,residual activity,EPHA1 (human),97%
same,residual activity,NEK7 (human),102%
same,residual activity,ROCK2 (human),89%
same,residual activity,[1],97%
same,residual activity,LRRK2 (human),91.9%
same,residual activity,CDK2 CCNE1 (human),102%
same,residual activity,BRSK2 (human),99.3%
same,residual activity,PTK2 (human),106%
same,residual activity,GRK7 (human),112%
same,residual activity,PIM1 (human),102%
same,residual activity,MAPK9 (human),108%
same,residual activity,PTK2B (human),92.1%
same,residual activity,CDK6 CCND1 (human),97.5%
same,residual activity,CHEK2 (human),102%
same,residual activity,ROS1 (human),99.3%
same,residual activity,CSNK1G1 (human),91.7%
same,residual activity,PDPK1 (human),98.3%
same,residual activity,CDK1 CCNA2 (human),99.8%
same,residual activity,STK39 (human),101%
same,residual activity,[2],96.2%
same,residual activity,WNK2 (human),99.5%
same,residual activity,MARK3 (human),124%
same,residual activity,TBK1 (human),103%
same,residual activity,RAF1 (human),92.8%
same,residual activity,ADRBK1 (human),99.9%
same,residual activity,LTK (human),103%
same,residual activity,ADRBK2 (human),103%
same,residual activity,TEC (human),106%
same,residual activity,MARK4 (human),86.8%
same,residual activity,MINK1 (human),90.2%
same,residual activity,MAP3K5 (human),91.7%
N#Cc1c[nH]c2c[nH]/c(=N\Cc3cccnc3)cc2/c1=N\c1ccc(F)c(Cl)c1,residual activity,CLK1 (human),91%
same,residual activity,EPHA4 (human),92.8%
same,residual activity,TYRO3 (human),98%
same,residual activity,NEK2 (human),75.2%
same,residual activity,PRKCI (human),94.7%
same,residual activity,MAPK11 (human),102%
same,residual activity,FYN (human),103%
same,residual activity,CDK5 CDK5R1 p25 (human),78.3%
same,residual activity,MELK (human),88%
same,residual activity,RPS6KB2 (human),99.5%
same,residual activity,PNCK (human),99.8%
same,residual activity,EPHA1 (human),94.5%
same,residual activity,NEK7 (human),102%
same,residual activity,ROCK2 (human),97.1%
same,residual activity,[1],115%
same,residual activity,LRRK2 (human),86.6%
same,residual activity,CDK2 CCNE1 (human),94.1%
same,residual activity,BRSK2 (human),100%
same,residual activity,PTK2 (human),99.6%
same,residual activity,GRK7 (human),95.5%
same,residual activity,PIM1 (human),92.7%
same,residual activity,MAPK9 (human),100%
same,residual activity,PTK2B (human),100%
same,residual activity,CDK6 CCND1 (human),92.2%
same,residual activity,CHEK2 (human),90.5%
same,residual activity,ROS1 (human),98.3%
same,residual activity,CSNK1G1 (human),87%
same,residual activity,PDPK1 (human),85.3%
same,residual activity,CDK1 CCNA2 (human),88%
same,residual activity,STK39 (human),78.6%
same,residual activity,[2],96.2%
same,residual activity,WNK2 (human),91.1%
same,residual activity,MARK3 (human),101%
same,residual activity,TBK1 (human),83.4%
same,residual activity,RAF1 (human),90.9%
same,residual activity,ADRBK1 (human),95.7%
same,residual activity,LTK (human),95.6%
same,residual activity,ADRBK2 (human),100%
same,residual activity,TEC (human),118%
same,residual activity,MARK4 (human),96.4%
same,residual activity,MINK1 (human),77.5%
same,residual activity,MAP3K5 (human),106%
